Active and inactive are the calls of the source. No rule for the calls is given here.
System: not listed separately
Assay: nonspecific luciferase activators in D54 LucT cells, dose response, counter-screen for N-linked glycosylation inhibitor project, cell-based, dry powder, set 2 (AID 1053120)
Settings: D54 LucT luciferase reporter (no NLG), luminescence, 24 h; at 19.5 µM (top of the series)
With Cc1cc(C)cc(C(=O)N2CC(=O)Nc3ccccc32)c1 the luciferase activation was 33.3% (inactive).
With CC(=O)c1cccc(NC(=O)CSc2ncc(C(=O)Nc3ccccc3)c(=O)n2C)c1 the luciferase activation was 33.3% (inactive).
With CCCOC(=O)c1[nH]c2c(c1C)C(=O)CC(c1cccs1)C2 (configuration not stated) the luciferase activation was 50% (inactive).
For Cc1cc(NC(=O)CSc2nc(-c3ccco3)cc(C(F)(F)F)n2)no1, the luciferase activation was 0% (inactive).
In the case of CC(=O)c1ccc(Oc2cc(C)nc(-n3nc(C)cc3C)n2)cc1, the luciferase activation is reported as 0% (inactive).
With CCN(CC)CCCNc1nc2cc(OC)c(OC)cc2c2nc(-c3ccccc3)nn12 the luciferase activation was -33.3% (inactive).
In the case of COc1ccc2c(COC(=O)c3cccc(S(=O)(=O)NCC(C)C)c3)cc(=O)oc2c1, the luciferase activation is reported as 66.7% (inactive).
With Cc1cccc(C)c1OCCNC(=O)C(=O)NCc1ccco1 the luciferase activation was 33.3% (inactive).
With Cc1csc(NC(=O)c2cc(S(=O)(=O)N(C)C)ccc2N2CCCC2)n1 the luciferase activation was 50% (inactive).
With COc1ccc(CSc2nnc(-c3ccccc3)o2)cc1 the luciferase activation was 50% (inactive).
For CCOC(=O)COc1cccc2c(=O)n(CC(=O)NCc3ccccc3)ccc12, the luciferase activation was 0% (inactive).
In the case of C/C(=N\NC(=O)c1c([N+](=O)[O-])c(C)nn1C)c1ccc(NC(=O)C2CCCC2)cc1, the luciferase activation is reported as 0% (inactive).
In the case of O=C1CCN(Cc2ccccc2)c2cc3ccccc3cc21, the luciferase activation is reported as 0% (inactive).
In the case of CCOc1ccc(NC(=O)c2cc(OC)nc3ccccc23)cc1, the luciferase activation is reported as 0% (inactive).
With Cc1ccc2cc(CN(CCCN(C)C)C(=O)Nc3ccccc3)c(=O)[nH]c2c1C the luciferase activation was 0% (inactive).
In the case of CCn1c2ccccc2c2cc(NC(=O)c3cc(OC)c(OC)c(OC)c3)ccc21, the luciferase activation is reported as -33.3% (inactive).
In the case of CC(=O)N1CCC(=O)c2cc3ccccc3cc21, the luciferase activation is reported as 33.3% (inactive).
In the case of Cc1ccc2cc(CN(CCCN(C)C)C(=O)NCc3ccccc3)c(=O)[nH]c2c1C, the luciferase activation is reported as 50% (inactive).
With COc1cccc(N2CCN(C(=O)c3ccc(CS(=O)c4ccc(C)cc4)o3)CC2)c1 (configuration not stated) the luciferase activation was 0% (inactive).
In the case of COc1cc(C(=O)NCCOc2cc(C)cc(C)c2)cc(OC)c1OC, the luciferase activation is reported as 33.3% (inactive).
In the case of Brc1ccc(CSc2nnc(-c3ccccc3)o2)cc1, the luciferase activation is reported as 0% (inactive).
For COc1cc(Nc2c3c(nc4ccccc24)CCCC3)cc(OC)c1OC, the luciferase activation was 0% (inactive).
In the case of Cc1cnc(NC(=O)c2cc(S(=O)(=O)N(C)C)ccc2N2CCC2)s1, the luciferase activation is reported as -20% (inactive).
With O=C(Cc1ccccc1)c1nnc(-c2ccccc2)o1 the luciferase activation was 33.3% (inactive).
In the case of Cc1cc(C)nc(/N=C(\N)Nc2ccc(OCc3ccccc3)cc2)n1, the luciferase activation is reported as -33.3% (inactive).
For Cc1cc(=O)[nH]c(N/N=C/c2cc(C)n(CC(F)(F)F)c2C)n1, the luciferase activation was 0% (inactive).
For Cc1cnc(NC(=O)c2cc(S(=O)(=O)N(C)C)ccc2N2CCCC2)s1, the luciferase activation was 0% (inactive).
For CCN(CC)CCOc1ccc2c(c1)C(=NNC(=O)c1ccccn1)c1cc(OCCN(CC)CC)ccc1-2, the luciferase activation was -33.3% (inactive).
In the case of COc1ccccc1OCC(=O)NNC(=O)c1ccoc1C, the luciferase activation is reported as 33.3% (inactive).
In the case of Cc1ccc(CCC(=O)Nc2ncc(Cc3cc(Cl)ccc3Cl)s2)o1, the luciferase activation is reported as -33.3% (inactive).
In the case of Cc1ccc(C(=O)c2cc([N+](=O)[O-])ccc2N2CCOCC2)cc1C, the luciferase activation is reported as 66.7% (inactive).
In the case of CN(C)CCCN(Cc1cc2ccccc2[nH]c1=O)C(=O)Nc1ccccc1, the luciferase activation is reported as 20% (inactive).
In the case of Cc1ccc(Oc2ccc(S(=O)(=O)N3CCOCC3)cc2C(N)=O)c(-n2nc3ccccc3n2)c1, the luciferase activation is reported as 33.3% (inactive).
With CN(C)S(=O)(=O)c1ccc(N2CCCC2)c(C(=O)Nc2ccccc2)c1 the luciferase activation was 20% (inactive).
In the case of COc1ccc(NC(=O)C(=O)c2cn(CC(=O)N3CCCC3)c3ccccc23)cc1, the luciferase activation is reported as -33.3% (inactive).
For Cc1[nH][nH]c(=O)c1C(c1ccc(-c2ccc(Cl)c(Cl)c2)o1)c1c(C)[nH][nH]c1=O, the luciferase activation was 0% (inactive).
With COc1ccc2nc(NC(=O)c3cc(S(=O)(=O)N(C)C)ccc3N3CCCC3)sc2c1 the luciferase activation was 0% (inactive).
In the case of CN(C)CCCN(Cc1cc2ccccc2[nH]c1=O)C(=O)NCc1ccccc1, the luciferase activation is reported as 0% (inactive).
With Cc1cnc(NC(=O)c2cc(S(=O)(=O)N3CCCCC3)ccc2N2CCCC2)s1 the luciferase activation was 50% (inactive).
In the case of CC(=O)N[C@H]1[C@@H](O[C@@H]2OC(C[C@@H](O)C3O[C@@H](n4ccc(=O)[nH]c4=O)[C@H](O)[C@@H]3O)[C@H](O)[C@H](O)[C@H]2NC(=O)/C=C/CCCCCCCCCCC(C)C)O[C@H](CO)[C@@H](O)[C@@H]1O (some centres not stated), the luciferase activation is reported as -50% (inactive).
With Cc1ccc(NC(=O)c2cc(S(=O)(=O)N(C)C)ccc2N2CCCC2)cc1 the luciferase activation was 0% (inactive).
With CN(C)S(=O)(=O)c1ccc(N2CCCC2)c(C(=O)Nc2nc3ccccc3s2)c1 the luciferase activation was 0% (inactive).
For COc1cccc2sc(NC(=O)c3cc(S(=O)(=O)N(C)C)ccc3N3CCCC3)nc12, the luciferase activation was -50% (inactive).
For CCC1=Nc2cc(C(=O)NCCCOC)ccc2Sc2ccccc21, the luciferase activation was -33.3% (inactive).
In the case of Cc1cnc(NC(=O)c2cc(S(=O)(=O)N3CCCC3)ccc2N2CCCC2)s1, the luciferase activation is reported as -20% (inactive).
In the case of CCCCOc1ccccc1C1CC(=O)NC2=C1C(=O)CCC2 (configuration not stated), the luciferase activation is reported as 0% (inactive).
With COc1ccc2sc(NC(=O)c3cc(S(=O)(=O)N(C)C)ccc3N3CCCC3)nc2c1 the luciferase activation was -50% (inactive).
For CCOc1ccc(S(=O)(=O)NCc2ccccn2)cc1NC(=O)c1ccccc1F, the luciferase activation was 0% (inactive).
For CN(C)S(=O)(=O)c1ccc(N2CCCC2)c(C(=O)Nc2nccs2)c1, the luciferase activation was 20% (inactive).
In the case of Cc1cnc(NC(=O)c2cc(S(=O)(=O)N3CCOCC3)ccc2N2CCCC2)s1, the luciferase activation is reported as -20% (inactive).
With O=C1CCNc2cc3ccccc3cc21 the luciferase activation was -66.7% (inactive).
With CCN(CC)CCC(=O)Nc1cccc2c1C(=O)c1ccccc1C2=O the luciferase activation was -33.3% (inactive).

System: D54 LucT luciferase reporter (no NLG), luminescence, 24 h
Assay: as above
Settings: not given
Work on Cc1ccc(/C=N/NC(=O)C2COc3ccccc3O2)s1 (configuration not stated) yielded an AC40 of 15300 nM.
CCCNS(=O)(=O)c1cccc(C(=O)OCc2cc(=O)oc3cc(OC)ccc23)c1 gave an AC40 of 2140 nM.
Compound COc1ccccc1CSc1nnc(-c2ccccc2)o1 has an AC40 of 845 nM.
In the case of Nc1nc(=S)c2ncn([C@@H]3O[C@H](CO)[C@@H](O)[C@H]3O)c2[nH]1, the AC40 is reported as 5190 nM.
CCOC(=O)c1ccc(Oc2cc(C)nc(SC)n2)cc1 gave an AC40 of 3390 nM.
In the case of O=C(N/N=C/c1ccc(Cl)cc1)c1sccc1OCc1ccc(F)cc1, the AC40 is reported as 1600 nM.
In the case of COC(=O)c1cn(C(=O)c2ccc(OC)cc2)c2ccccc12, the AC40 is reported as 15400 nM.
With COc1ccc(-c2nnc(SCc3ccccc3)o2)cc1 the AC40 was 5120 nM.
For COc1cc(-c2nnc(SCC3(c4ccc(Br)cc4)OCCO3)o2)cc(OC)c1OC, the AC40 was 930 nM.
For COc1ccccc1-c1nnc(SCc2ccccc2)o1, the AC40 was 632 nM.
